Where two headings read alike, the source gives them in different places.
Assays:
[1] = tested on: A/California/07/2009 (H1N1); experiment: Antiviral activity (drug efficacy evaluation by concentration) against A/California/07/2009 (H1N1); format: cell-based, A type influenza virus; conditions: Influenza A virus
A/Perth/16/2009 (H3N2) = experiment: Antiviral activity (drug efficacy evaluation by concentration) against A/Perth/16/2009 (H3N2); format: cell-based, A type influenza virus; conditions: Influenza A virus
B/Florida/04/2006 = experiment: Antiviral activity (drug efficacy evaluation by concentration) against B/Florida/04/2006; format: cell-based, B type influenza virus
[2] = H1N1, A/California/07/2009 (H1N1), read-out: EC50 A/California/07/2009 (H1N1)
[3] = H3N2, A/Perth/16/2009 (H3N2), read-out: EC50 A/Perth/16/2009 (H3N2)
[4] = read-out: EC50 B/Florida/04/2006, B/Florida/04/2006
[5] = CC50 B/Florida/04/2006, cytotoxicity in the B/Florida/04/2006 assay
[6] = CC50, third EC50/CC50 column pair (c7), beside the EC50 of c6

| SMILES | EC50 [1, 2] | EC50 (A/Perth/16/2009 (H3N2); [3]) | melting point | EC50 (B/Florida/04/2006; [4]) | CC50 (in vitro; [5]) | EC50 ([1]; H1N1, read-out: EC50) | EC50 (A/Perth/16/2009 (H3N2); H3N2, read-out: EC50) | EC50 (B/Florida/04/2006) | CC50 (in vitro; CC50, beside the EC50 of c2) | CC50 (in vitro; CC50, beside the EC50 of c4) | CC50 (in vitro; [6]) |
| --- | --- | --- | --- | --- | --- | --- | --- | --- | --- | --- | --- |
| COC(=O)c1ccccc1CSc1nnc(Cn2nc(C)c(Br)c2C)o1 [Compound 37, methyl 2-(((5-((4-bromo-3,5-dimethyl-1H-pyrazol-1-yl)methyl)-1,3,4-oxadiazol-2-yl)thio)methyl)benzoate] | 37.8 µM | 41.8 µM | 123.6 °C | > 50 µM | > 50 µM | – | – | – | – | – | – |
| Brc1ccc(-c2nnc(SCc3ccccc3-c3ccccc3)o2)cc1 [Compound 42, 2-(([1,1′-biphenyl]-2-ylmethyl)thio)-5-(4-bromophenyl)-1,3,4-oxadiazole] | 1.62 µM | 2.33 µM | 120.5 °C | 2.92 µM | 14.8 µM | – | – | – | – | – | – |
| Cc1ccccc1CSc1ccc(C(=O)n2nc(C)c(Br)c2C)o1 [Compound 48, (4-bromo-3,5-dimethyl-1H-pyrazol-1-yl)(5-((2-methylbenzyl)thio)furan-2-yl)methanone] | 4.88 µM | 11.3 µM | 101.2 °C | 23.4 µM | 9.54 µM | – | – | – | – | – | – |
| O=C(NCc1nnc(SCc2ccccc2-c2ccccc2)o1)c1ccc(Br)cc1 [Compound 51, N-((5-(([1,1′-biphenyl]-2-ylmethyl)thio)-1,3,4-oxadiazol-2-yl)methyl)-4-bromobenzamide] | 4.01 µM | 5.04 µM | 135.4 °C | 6.02 µM | 28.6 µM | – | – | – | – | – | – |
| Brc1ccc(Nc2nnc(SCc3ccccc3-c3ccccc3)o2)cc1 [Compound 52, 5-(([1,1′-biphenyl]-2-ylmethyl)thio)-N-(4-bromophenyl)-1,3,4-oxadiazol-2-amine] | > 50 µM | 8.11 µM | 158.2 °C | 16.3 µM | > 50 µM | – | – | – | – | – | – |
| Cc1ccccc1Sc1nnc(Cn2nc(C)c(Br)c2C)o1 [Compound 53, 2-((4-bromo-3,5-dimethyl-1H-pyrazol-1-yl)methyl)-5-(o-tolylthio)-1,3,4-oxadiazole] | 0.12 µM | 8.57 µM | 103.6 °C | 8.94 µM | 7.91 µM | – | – | – | – | – | – |
| O=S(=O)(Cc1ccccc1-c1ccccc1)c1nnc(Cc2ccc(Br)cc2)o1 [Compound 60, 2-(([1,1′-biphenyl]-2-ylmethyl)sulfonyl)-5-(4-bromobenzyl)-1,3,4-oxadiazole] | 12.1 µM | 6.36 µM | 134.2 °C | 4.11 µM | 8.46 µM | – | – | – | – | – | – |
| Cc1cc(Br)cc(C)c1Nc1nnc(SCc2ccccc2-c2ccccc2)o1 [Compound 61, 5-(([1,1′-biphenyl]-2-ylmethyl)thio)-N-(4-bromo-2,6-dimethylphenyl)-1,3,4-oxadiazol-2-amine] | 2.3 µM | 2.61 µM | 211.2 °C | 2.3 µM | 4.02 µM | – | – | – | – | – | – |
| [O-][S+](Cc1ccccc1-c1ccccc1)c1nnc(Nc2ccc(Br)cc2)o1 (centres unmarked) [Compound 63, 5-(([1,1′-biphenyl]-2-ylmethyl)sulfinyl)-N-(4-bromophenyl)-1,3,4-oxadiazol-2-amine] | 2.61 µM | 6.05 µM | 199 °C | 7.06 µM | > 14.6 µM | – | – | – | – | – | – |
| O=C(c1ccccc1)c1nnc(Cc2ccc(Br)cc2)o1 [Compound 64, (5-(4-bromobenzyl)-1,3,4-oxadiazol-2-yl)(phenyl)methanone] | 5.97 µM | > 50 µM | 139.9 °C | 40.5 µM | > 50 µM | – | – | – | – | – | – |
| Cc1cc(C)cc(Nc2nnc(SCc3ccccc3-c3ccccc3)o2)c1 [Compound 68, 5-(([1,1′-biphenyl]-2-ylmethyl)thio)-N-(3,5-dimethylphenyl)-1,3,4-oxadiazol-2-amine] | 2.77 µM | 1.6 µM | 232.2 °C | 1.83 µM | > 50 µM | – | – | – | – | – | – |
| c1ccc(Nc2nnc(SCc3ccccc3-c3ccccc3)o2)cc1 [Compound 71, 5-(([1,1′-biphenyl]-2-ylmethyl)thio)-N-phenyl-1,3,4-oxadiazol-2-amine] | 21 µM | 14.2 µM | 172.1 °C | 22.8 µM | 6.53 µM | – | – | – | – | – | – |
| Cc1cccc(C)c1Nc1nnc(C(=O)c2ccccc2)o1 [Compound 76, (5-((2,6-dimethylphenyl)amino)-1,3,4-oxadiazol-2-yl)(phenyl)methanone] | 14.1 µM | 14.1 µM | 236.1 °C | > 50 µM | > 50 µM | – | – | – | – | – | – |
| Cc1cccc(C)c1Nc1nnc(C(O)c2ccc(F)c(Cl)c2)o1 (centres unmarked) [Compound 79, (3-chloro-4-fluorophenyl)(5-((2,6-dimethylphenyl)amino)-1,3,4-oxadiazol-2-yl)methanol] | > 50 µM | > 50 µM | 185.8 °C | > 50 µM | > 50 µM | – | – | – | – | – | – |
| CC(C)c1ccccc1CCc1nnc(Nc2ccc(Br)cc2)o1 [Compound 84, N-(4-bromophenyl)-5-(2-isopropylphenethyl)-1,3,4-oxadiazol-2-amine] | – | – | 175.4 °C | – | – | 34.7 µM | 41.7 µM | > 50 µM | > 50 µM | > 50 µM | > 50 µM |
| Cc1cccc(C)c1Nc1nnc(CCc2ccccc2C(C)C)o1 [Compound 85, N-(2,6-dimethylphenyl)-5-(2-isopropylphenethyl)-1,3,4-oxadiazol-2-amine] | – | – | 234.1 °C | – | – | > 50 µM | > 50 µM | > 50 µM | > 50 µM | > 50 µM | > 50 µM |
| Fc1ccc(/C=C/c2nnc(Cc3ccc(Br)cc3)o2)c(Cl)c1 [Compound 86, (E)-2-(4-bromobenzyl)-5-(2-chloro-4-fluorostyryl)-1,3,4-oxadiazole] | – | – | 147.9 °C | – | – | 2.7 µM | 45.7 µM | 42 µM | > 50 µM | > 50 µM | > 50 µM |
| Fc1ccc(/C=C/c2nnc(Nc3ccc(Br)cc3)o2)c(Cl)c1 [Compound 87, (E)-N-(4-bromophenyl)-5-(2-chloro-4-fluorostyryl)-1,3,4-oxadiazol-2-amine] | – | – | 218.7 °C | – | – | 2.74 µM | 1.97 µM | 2.52 µM | > 50 µM | > 50 µM | > 50 µM |
| Cc1ccccc1CCc1nnc(Nc2ccc(Br)c(F)c2)o1 [Compound 91, N-(4-bromo-3-fluorophenyl)-5-(2-methylphenethyl)-1,3,4-oxadiazol-2-amine] | – | – | 151.6 °C | – | – | 9.13 µM | 8.3 µM | 19.3 µM | 6.03 µM | 15.7 µM | 6.63 µM |
| Brc1ccc(Cc2nnc(/C=C/c3ccccc3C3CCCCC3)o2)cc1 [Compound 111, 2-(4-bromobenzyl)-5-(2-cyclohexylstyryl)-1,3,4-oxadiazole] | – | – | 117.1 °C | – | – | 31.8 µM | 34.3 µM | 41.3 µM | 32.5 µM | > 50 µM | > 50 µM |
| Brc1ccc(Nc2nnc(/C=C/c3ccccc3C3CCCCC3)o2)cc1 [Compound 116, (E)-N-(4-bromophenyl)-5-(2-cyclohexylstyryl)-1,3,4-oxadiazol-2-amine] | – | – | 228.3 °C | – | – | 36.2 µM | 35.1 µM | 34.5 µM | > 50 µM | > 50 µM | – |
| COc1ccccc1/C=C/c1nnc(Nc2ccc(Br)cc2)o1 [Compound 120, (E)-N-(4-bromophenyl)-5-(2-methoxystyryl)-1,3,4-oxadiazol-2-amine] | – | – | 232.4 °C | – | – | 23.1 µM | 18.1 µM | 17.4 µM | > 50 µM | > 50 µM | – |
| Cc1ccccc1CCc1nnc(Nc2ccc(F)c(Cl)c2)o1 [Compound 122, N-(3-chloro-4-fluorophenyl)-5-(2-methylphenethyl)-1,3,4-oxadiazol-2-amine] | – | – | 87 °C | – | – | 37.4 µM | 43.9 µM | > 50 µM | > 50 µM | > 50 µM | – |
| Cc1ccccc1CCc1nnc(Nc2ccc(C(F)(F)F)cc2)o1 [Compound 123, 5-(2-methylphenethyl)-N-(4-(trifluoromethyl)phenyl)-1,3,4-oxadiazol-2-amine] | – | – | 164.5 °C | – | – | 14.2 µM | 3.61 µM | 11 µM | 35 µM | > 50 µM | > 50 µM |
| Brc1ccc(Cc2nnc(/C=C/c3ccccc3-c3ccccc3)o2)cc1 [Compound 126, (E)-2-(2-([1,1′-biphenyl]-2-yl)vinyl)-5-(4-bromobenzyl)-1,3,4-oxadiazole] | – | – | 87.4 °C | – | – | 45.7 µM | > 50 µM | > 50 µM | > 50 µM | > 50 µM | > 50 µM |
| Brc1ccc(Cc2nnc(/C=C/c3ccccc3Oc3ccccc3)o2)cc1 [Compound 127, (E)-2-(4-bromobenzyl)-5-(2-phenoxystyryl)-1,3,4-oxadiazole] | – | – | 125.5 °C | – | – | 34.9 µM | 24.4 µM | 16 µM | > 50 µM | > 50 µM | > 50 µM |
| CC(C)c1ccccc1/C=C/c1nnc(Cc2cccc(Br)c2)o1 [Compound 130, 2-(3-bromobenzyl)-5-(2-isopropylstyryl)-1,3,4-oxadiazole] | – | – | 79.3 °C | – | – | 42.4 µM | 32.8 µM | 36.2 µM | > 50 µM | > 50 µM | > 50 µM |

— patent US11149033B2, “Heteroaryl compound, enantiomer, diastereomer or pharmaceutically acceptable salt thereof, and antiviral composition containing same as active ingredient” (priority 2016, dated 2021)
